According to the supplement of paper PMC10949913:

Key:
Test in all cases: area under concentration-response curve (viability) (AUC (a.u.)); higher = less active
Conditions in all cases: 48 h
NCI-H295R = system: NCI-H295R
Procedure, shortened: (§1)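 Three adrenocortical carcinoma cell lines were plated in 1,536-well plates at 500–1,000 cells/well in 5 µL medium, and 23 nL of each library compound was added at 11 concentrations. After 48 h, CellTiter-Glo was applied for 15 minutes at room temperature before luminescence was read. Each plate's signals were normalised to vehicle and empty-well controls. AC50 and area under the curve were taken from fitted concentration-response curves, with only inhibitory or non-responding curve classes retained.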

CU-ACC2 = system: CU-ACC2
Procedure, shortened: as §1

CU-ACC1 = system: CU-ACC1
Procedure, shortened: as §1

Row | Compound | area under concentration-response curve (NCI-H295R) | area under concentration-response curve (CU-ACC2) | area under concentration-response curve (CU-ACC1)
1 | Cc1nc(C)c(CN2CCN(C(c3ccc(F)cc3)c3ccc(F)cc3)CC2)nc1C | 471 | 563 | 481
2 | CC1Cc2ccccc2N1NC(=O)c1ccc(Cl)c([S+](N)(=O)[O-])c1 (stereo not given) | 531 | 583 | 488
3 | CC(C)C(=O)Nc1ccc([N+](=O)[O-])c(C(F)(F)F)c1 | 570 | 627 | 551
4 | CCOC(=O)N1c2ccc(C(F)(F)F)cc2[C@@H](N(Cc2cc(C(F)(F)F)cc(C(F)(F)F)c2)C(=O)OC)C[C@H]1CC | 533 | 636 | 502
5 | CNC(=O)[C@H](Cc1ccccc1)NC(=O)[C@H](CC(C)C)[C@H](CSc1cccs1)C(=O)NO | 560 | 596 | 480
6 | COc1cc2c(cc1OC)CN(CCc1ccc(NC(=O)c3cc(OC)c(OC)cc3NC(=O)c3cnc4ccccc4c3)cc1)CC2 | 569 | 640 | 560
7 | COC(=O)/C=C/C(=O)OC | 550 | 608 | 525
8 | CC/1=C/N([C@@H]2C[C@@H](O)[C@H](CO)O2)C(=O)NC1=O | 404 | 425 | 410
9 | O=c1cc(O)c(Cl)c[nH]1 | 586 | 641 | 558
10 | C[C@@H]1CN[C@H]2[C@@H](C)[C@@]\3(CC[C@H]\4[C@@H]5C/C=C6/C[C@@H](O)CC[C@]6(C)[C@H]5CC4=C3C)O[C@@H]2C1 | 511 | 433 | 463
11 | CC(C)(O)C(=O)Nc1ccc([N+](=O)[O-])c(C(F)(F)F)c1 | 537 | 602 | 505
12 | CC(C)Cc1ccc([C@@H](C)C(=O)N[S+](C)(=O)[O-])cc1 | 553 | 586 | 492
13 | C[C@@H]1CC(=O)Nc2cccc(-c3ccc4c(c3)c(-c3cnn(C)c3)nn4C)c2N1 | 550 | 602 | 517
14 | O=C1CCC[C@@H]2[C@H]3CCC[N+]4([O-])CCC[C@@H](CN12)[C@@H]34 (stereo not given in full) | 552 | 610 | 536
15 | COC(c1ccccc1)(c1ccccc1)[C@H](Oc1nc(C)cc(C)n1)C(=O)O | 578 | 586 | 531
16 | C[N]1C=C(C=N1)C2=C3\C=N/NC(=O)C4=C3C(=CC(=C4)NC(=O)[C@H](N)C5CCCCC5)[NH]2 | 555 | 594 | 530
17 | COC1=CC=C(Cl)C=C1\C2=C\C(=O)NC(=S)N2CC(N)=O | 556 | 580 | 448
18 | CC(C)(CO)[C@@H](O)C(=O)NCCC(=O)O | 509 | 487 | 506
19 | C[N+](C)([O-])CCNc1ccc(NCC[N+](C)(C)[O-])c2c1C(=O)c1c(O)ccc(O)c1C2=O | 496 | 540 | 505
20 | O=C1C[C@@H](c2ccc(O)cc2)Oc2cc(O)cc(O)c21 | 485 | 484 | 345
21 | CNC(=O)c1c(-c2ccc(F)cc2)oc2cc(N(CCO)[S+](C)(=O)[O-])c(C3CC3)cc12 | 496 | 580 | 470
22 | CCCCC(=O)O[C@@]1([C@@H](C)C[C@H]2[C@@H]3CCC/4=C/C(=O)/C=C\[C@]4(C)[C@@]3(F)[C@@H](O)C[C@]12C)C(=O)CO | 462 | 555 | 455
23 | CC(=O)NC[C@H]1CN(c2ccc(N3CCOCC3)c(F)c2)C(=O)O1 | 612 | 700 | 565

Row | Compound | area under concentration-response curve (NCI-H295R) | area under concentration-response curve (CU-ACC2) | area under concentration-response curve (CU-ACC1)
24 | C#C[C@]1(O)CC[C@H]2[C@@H]3CCc4cc(O)ccc4[C@H]3CC[C@@]21C | 538 | 611 | 525
25 | CCN1C(=O)\C(=C/C2=C1N=C(NC3=CC=C(N4CCNCC4)C(=C3)F)N=C2)C5=CC=C(Cl)C=C5Cl | 537 | 580 | 518
26 | CC(NC1=NC=NC2=C1[NH]C=N2)\C3=C\C4=C(C(=CC=C4)Cl)C(=O)N3C5=CC=CC=C5 (stereo not given) | 580 | 569 | 432
27 | CC1CNc2c(cccc2[S+](=O)([O-])N[C@@H](CCCNC(=N)N)C(=O)N2CC[C@@H](C)C[C@@H]2C(=O)O)C1 (stereo not given in full) | 507 | 547 | 502
28 | O=S(=O)([O-])CCS | 551 | 518 | 539
29 | C[C@H](Nc1ncnc2[nH]cnc12)c1cc2ccc(F)cc2nc1-c1ccccn1 | 512 | 571 | 466
30 | CO[C@@H]1[C@H](N(C)C(=O)c2ccccc2)C[C@H]2O[C@]1(C)n1c3ccccc3c3c4c(c5c6ccccc6n2c5c31)C(=O)NC4 | 492 | 476 | 522
31 | OC[C@H]1O[C@H](C[C@@H]1O)N2/C=C(C(=O)NC2=O)/C(F)(F)F | 583 | 650 | 538
32 | OC1=CC2=C(C(=C1)O)C(=O)\C(=C(/O2)C3=CC(=C(O)C(=C3)O)O)O | 508 | 600 | 553
33 | Cn1c(Nc2ccc(C(F)(F)F)cc2)nc2cc(Oc3ccnc(-c4nc(C(F)(F)F)c[nH]4)c3)ccc21 | 469 | 508 | 369
34 | Cc1ccc(-c2nc(N)nc3c2nnn3Cc2cccc(CO[C@H]3CCOC3)n2)o1 | 561 | 569 | 520
35 | FC(F)(F)c1ccc(CNc2ccc(Cc3c[nH]c4ncc(Cl)cc34)cn2)cn1 | 582 | 630 | 555
36 | CC[C@H]1OC(=O)[C@H](C)C(=O)[C@H](C)[C@@H](O[C@H]2O[C@H](C)C[C@H](N(C)C)[C@H]2O)[C@](C)(OC)C[C@@H](C)C(=O)[C@H](C)[C@H]2N(CCCCn3cnc(-c4cccnc4)c3)C(=O)O[C@]12C | 419 | 452 | 436
37 | NC/1=N/C(=O)C/2=C(/NCC3CN(CN23)C4=CC=C(C=C4)C(=O)N[C@@H](CCC(O)=O)C(O)=O)N1 (stereo not given in full) | 526 | 565 | 475
38 | [2H]c1nc(C)nc([2H])c1-c1cc(NC[C@@H](C)c2cccc3c(C(=O)NC)ccnc23)ncn1 | 585 | 629 | 531
39 | CO[C@@H]1[C@@H](OC(N)=O)[C@@H](O)[C@H](OC2=CC=C3\C(=C(NC(=O)C4=CC=C([O-])C(=C4)CC=C(C)C)/C(=O)OC3=C2C)O)OC1(C)C | 539 | 531 | 535
40 | C[C@@H](c1ncncc1F)[C@](O)(Cn1cncn1)c1ccc(F)cc1F | 475 | 513 | 409
41 | N#Cc1ccnc(N2C(=O)CC[C@H]2C(=O)N(c2cncc(F)c2)[C@H](C(=O)NC2CC(F)(F)C2)c2ccccc2Cl)c1 | 560 | 613 | 486
42 | Nc1nc(F)nc2c1ncn2[C@@H]1O[C@H](COP(=O)(O)O)[C@@H](O)[C@@H]1O | 514 | 521 | 527
43 | C=C1/C(=C/C=C2\CCCC3(C)[C@@H]([C@H](C)/C=C/C=C/C(O)(CC)CC)CC[C@@H]23)C[C@@H](O)C[C@@H]1O (stereo not given in full) | 522 | 576 | 480
44 | O=C1c2ccccc2-c2n[nH]c3cccc1c23 | 530 | 587 | 494
45 | CC(COc1ccccc1)N(CCCl)Cc1ccccc1 (stereo not given) | 584 | 653 | 549
